Measurements: the METLIN SMRT retention time set (Domingo-Almenara et al. 2019)

Test: gradient 5% acetonitrile 3 min, to 50% in 2 min, to 85% in 15 min, held 3 min, 100 µL/min
Conditions: column: Zorbax Extend-C18 2.1 x 50 mm; eluents: water / acetonitrile, 0.1% formic acid
Summary of the method: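 Mixtures of ~100 pure standards were chromatographed on a Zorbax Extend-C18 column (2.1 × 50 mm, 1.8 μm) at 100 μL/min using water and acetonitrile, each with 0.1% formic acid. Detection used a quadrupole time-of-flight mass spectrometer in positive and negative ionization mode, and data collection spanned 3 months. Retention time was obtained from adduct peaks picked computationally and each checked manually.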

SMILES | RP-LC retention time
CCOC(=O)c1c(S(=O)(=O)N2CCC(C(=O)Nc3ccc(F)cc3)CC2)c(C)n(CC)c1C | 897 s
Cc1cc(Oc2ncnc3c2cnn3-c2ccc(Cl)cc2)ccc1[N+](=O)[O-] | 1270 s
CCN1C(=O)C(CC(=O)NC2CCCCC2)Sc2ncccc21 (configuration not stated) | 743 s
CSc1ccc(CCNC(=O)CCCN2C(=O)CCn3nc(C)cc32)cc1 | 690 s
Cc1cc(Cl)ccc1S(=O)(=O)N1CCC(F)(c2nc(CC(C)C)no2)CC1 | 1260 s
Cc1nc(-c2csc(S(=O)(=O)N3CCC(C(=O)N4CCC5(CC4)OCCO5)CC3)c2)no1 | 765 s
O=S(=O)(c1cccc(C(F)(F)F)c1)N1CCN(c2ccc(-n3ccnc3)nn2)CC1 | 601 s
CCc1nncn1C1CCN(S(=O)(=O)c2cc(Cl)ccc2OC)CC1 | 709 s
O=C(NCc1ccc(N2CCCC2)nc1)c1cccc(Br)c1 | 646 s
COCCN1CC(CO)C2(CCN(Cc3ccc(Cl)c(F)c3)CC2)C1 (configuration not stated) | 555 s
CCc1noc(NC(C)=O)c1-c1ccc(OC)c(S(=O)(=O)N(C)c2ccc(C)cc2)c1 | 790 s
Cc1cccc(Cc2cnc[nH]2)c1C | 667 s
CC(=O)N1CCC(C2CCN(Cc3ccc(Br)s3)C2)CC1 (configuration not stated) | 603 s
COc1ccc(C2CC(=O)N(c3cccc(Cl)c3)C(=O)C2)cc1OC | 881 s
CC(C(=O)Nc1nc(-c2ccccc2)cs1)N1C(=O)C2C3C=CC(C3)C2C1=O (configuration not stated) | 955 s
Cn1ccc2cc(S(=O)(=O)N3CCC(C(=O)NC4CCN(Cc5ccccc5)CC4)CC3)ccc21 | 666 s
CC(C)CC(=O)N1CCc2c(c(-c3nnc(-c4ccccc4Cl)o3)nn2C)C1 | 852 s
COCCN1CC2(CCN(S(=O)(=O)c3ccc(C(C)C)cc3)CC2)C1c1ccccc1 (configuration not stated) | 776 s
COCCNc1c(-c2ccc(F)cc2)nc2sc(C(=O)N3CCN(C)CC3)c(C)n12 | 569 s

SMILES | RP-LC retention time
C=CCn1c(=O)c2ccccc2n(Cc2nc(-c3cccc(Br)c3)no2)c1=O | 1140 s
CCCc1cc(N2CCN(C(=O)c3ccncc3)CC2)nc2nnc(CC)n12 | 580 s
CCCCN1C(=O)C(C)(C(=O)Nc2cccc(F)c2)Oc2cccnc21 (configuration not stated) | 924 s
Cc1sc(C)c(S(=O)(=O)N2CCc3ccccc3C2)c1-c1cc(C(F)(F)F)on1 | 1280 s
Cc1cccc(Oc2coc3cc(OC(=O)c4ccncc4)ccc3c2=O)c1 | 984 s
CC(C)NC(=O)N1CCCC(c2cccc(C(=O)NCCC3=CCCCC3)c2)C1 (configuration not stated) | 977 s
COc1ccc(C)cc1NC(=O)C(=O)NCCN1CCN(c2ccccc2F)CC1 | 614 s
CN1CCN(CCCNC(=O)CCCn2c(=O)c3cccn3c3ccc(F)cc32)CC1 | 582 s
Cc1ccc(-n2c(N3CCCC(C(=O)Nc4ccc(F)c(C)c4)C3)nc3ccsc3c2=O)cc1 (configuration not stated) | 1040 s
O=C1CN(c2ccccc2NC(=O)c2cc(-c3ccccc3)on2)CCN1 | 798 s
NC(=O)c1ccc2c(c1)CCCN2C(=O)c1ccc(Cl)cc1 | 704 s
O=C(NCc1ccco1)c1ccc(-c2noc(C3CC3)n2)cc1 | 839 s
CCn1nccc1C(=O)N1CCCC1c1ccccc1F (configuration not stated) | 840 s
O=C(Cc1cccs1)NC1CCN(c2nnc3ccc(Cl)cn23)CC1 | 596 s
Cn1cc(-c2ccncc2)cc1C(=O)NCc1ccc(F)cc1Cl | 653 s
Brc1cccc(-c2nnc(Cc3nc(-c4ccncc4)no3)o2)c1 | 854 s
CC(C)n1cc(S(=O)(=O)Nc2ccc(Cl)cc2F)c2cccnc21 | 950 s
CCn1ccc(-c2nc(-c3ccc4c(c3)ncn4CCC(=O)N3CCCC3)no2)n1 | 642 s
